Measurements reported in EP0777471B1, “INHIBITION OF LEUKOTRIENE BIOSYNTHESIS WITH UREA DERIVATIVES” (MINNESOTA MINING AND MANUFACTURING COMPANY, priority 1994, dated 1996).
Where “and” joins values, the source holds several entries; their conditions need not be identical. Equal entries are not always repeated. Where two headings read alike, the source gives them in different places.

Legend:
5-lipoxygenase = target: T1, 5-lipoxygenase (Homo sapiens, UniProt P09917); assay: 5-Lipoxygenase inhibition in human leukocytes (A23187-stimulated, LTC4 radioimmunoassay); assay type: cell-based; settings: human leukocytes, A23187 Calcium Ionophore, LTC4 formed; read-out: IC50
T1 construct: Whole human blood is collected by venipuncture into EDTA; endogenous in cells; host or cells: leukocytes isolated from whole human blood (dextran sedimentation, hypotonic lysis)
T1 sequence (P09917 1-674): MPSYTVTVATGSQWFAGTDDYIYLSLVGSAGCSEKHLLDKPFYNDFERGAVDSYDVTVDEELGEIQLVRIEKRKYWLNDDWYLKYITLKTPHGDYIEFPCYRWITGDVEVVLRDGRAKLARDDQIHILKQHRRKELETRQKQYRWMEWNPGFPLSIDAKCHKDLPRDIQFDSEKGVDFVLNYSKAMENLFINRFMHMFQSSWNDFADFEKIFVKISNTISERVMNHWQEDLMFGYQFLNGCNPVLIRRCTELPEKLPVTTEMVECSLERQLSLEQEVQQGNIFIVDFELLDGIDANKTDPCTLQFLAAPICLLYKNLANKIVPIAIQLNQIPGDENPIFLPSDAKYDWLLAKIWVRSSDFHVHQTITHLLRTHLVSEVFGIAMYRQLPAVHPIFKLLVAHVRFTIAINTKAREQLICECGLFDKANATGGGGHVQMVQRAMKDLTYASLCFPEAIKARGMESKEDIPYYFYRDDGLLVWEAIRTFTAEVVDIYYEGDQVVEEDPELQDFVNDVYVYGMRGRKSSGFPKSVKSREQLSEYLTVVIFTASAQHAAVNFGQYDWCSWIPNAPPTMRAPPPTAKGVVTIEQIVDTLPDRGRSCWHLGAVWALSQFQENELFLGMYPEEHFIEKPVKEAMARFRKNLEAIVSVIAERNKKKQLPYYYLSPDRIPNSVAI
Experimental: The test method described below measures the ability of compounds to inhibit 5-lipoxygenase activity in human leukocytes.
Whole human blood is collected by venipuncture into EDTA (1.4 mL of 0.25M per 60 mL of whole blood). The red blood cells are sedimented with a 6% dextran/0.9% sodium chloride solution at a ratio of 25 mL whole blood to 15 mL dextran solution. The blood/dextran combination is mixed by inversion and the red blood cells are allowed to settle out for 45 minutes at ambient temperature. The plasma/dextran supernatant is removed then centrifuged at ambient temperature at 3000 rpm for 10 minutes. The plasma/dextran supernatant is removed and the cells are resuspended in 10 mL of the plasma/dextran solution. […] The pellet is then resuspended into Tris buffer containing 1 mM calcium chloride to provide approximately 1.0 X 10^7 cells/mL.
Compounds are dissolved in dimethyl sulfoxide. […] Each concentration is tested in duplicate.
A 15 µL portion of Tris buffer containing 1 mM calcium chloride is added to each well of a 96 well microtiter plate. A 1 µL portion of drug solution or vehicle (dimethyl sulfoxide) is added to each well followed by the addition of an 75 µL portion of the cell suspension. The plates are gently mixed then allowed to stand at ambient temperature for 10 minutes. A 10 µL portion of 30 µM A23187 Calcium Ionophore (prepared by dissolving the ionophore in DMSO and then diluting 1:80 into the Tris buffer) is added to each well except the wells that contain the blanks (The blank wells measure the level of LTC4 production in the absence of A23187.). The plates are gently mixed then incubated at 37°C for 10 minutes.
Following incubation the plates are centrifuged at 2000 rpm for 1.5 minutes and the supernatant is removed as quickly as possible to stop the reaction. The supernatants are frozen at -20°C until they are assayed.
The supernatants are assayed for the presence of Leukotriene C4 by radioimmunoassay which is performed according to the manufacturer's (Advanced Magnetics; Cambridge, MA) instructions.

[1] = system: production of Leukotriene B4; assay: Rat ex vivo Leukotriene B4 inhibition (oral dosing, blood challenged with A23187); assay type: in vivo, Rats; settings: two hours post dose
Experimental: The test method described below measures the ability of a compound when administered orally to rats to inhibit the production of Leukotriene B4 in their blood which is drawn and challenged.
Rats (CD, male, non-fasted, 250 g) are lightly anesthetized with carbon dioxide and an approximately 0.75 mL sample of whole blood is obtained via cardiac puncture. The sample is dispensed into 12 X 75 mm polypropylene tubes containing 8-10 µL of 10,000 units/mL heparin, mixed and then maintained on ice. The rats are allowed to recover approximately one hour then dosed orally with compound dissolved in PEG 400 at a 5 mL/Kg volume. Five (5) rats are utilized per group. Two (2) hours post dose the rats are again anesthetized with carbon dioxide and the blood sampled again via cardiac puncture.
Duplicate 200 µL portions of blood are added to 1.0 mL polypropylene tubes. A 10 µL portion of 1mM A23187 Calcium Ionophore in dimethyl sulfoxide/Tris buffer is added to each tube. The tubes are gently vortexed then incubated in a 37°C water bath for 30 minutes. The tubes are then centrifuged at 4000 rpm for 10 minutes. 50 µL portions of plasma are transferred to 1.0 mL tubes containing 200 µL of methanol. The tubes are vortexed then placed in the freezer overnight.
The tubes are removed from the freezer then centrifuged at 4000 rpm for 10 minutes. […] portions of the methanol/plasma supernatant and 10 µL methanol dilutions of LTB4 standard curve are transferred to 96 well v-bottom microtiter plates. The plates are vacuum dried at 40°C. A 40 µL portion of LTB4 radioimmunoassay buffer is added to each well. The plate is bath sonicated for 5 minutes then assayed according to the manufacturer's (Advanced Magnetics; Cambridge, MA) instructions. Percent inhibition values are obtained by comparing the level of LTB4 in the post-dose samples to the level in the pre-dose samples according to the equation below. % Inhibition =((LTB4 pre-dose) - (LTB4 post-dose))/((LTB4 pre-dose))X 100 [formula]

[2] = system: production of Leukotriene B4 (LTB4); assay: Dog ex vivo Leukotriene B4 inhibition (oral dosing, blood challenged with calcium ionophore); assay type: in vivo, beagle dogs; settings: each entry one dog, negative = stimulation of LTB4 production; for % Inhibition 6 hour: 6 hour post dose; for inhibition at 5 mg/kg: Canis lupus familiaris, po
Experimental: The test method described below measures the ability of a compound when administered orally to dogs to inhibit the production of Leukotriene B4 (LTB4) in their blood which is drawn and challenged at selected time points.
The test is conducted in beagle dogs (male and female; about 10 Kg). Prior to starting, the neck area of the beagle is shaved to allow easy access to the jugular vein. A 3-4 mL sample of blood is drawn from the jugular vein into a heparinized vacutainer. The dog is then dosed using a tube long enough to reach its stomach. The compound is dissolved in PEG 400 at a concentration such that the appropriate dose can be administered in approximately 5 mL. Immediately after the compound is given, a flush using 5 mL of vehicle is given to rinse the dosing tube. At selected time points following the dose, a 3-4 mL sample of blood is drawn.
The blood samples that have been drawn are challenged as soon as possible. A 0.5 mL portion of blood is aliquoted into 3 tubes (1 mL microtiter tubes). A 1 µL portion of 25 mM calcium ionophore in dimethyl sulfoxide is added to 2 of the tubes. A 1 µL portion of dimethyl sulfoxide is added to the third tube. The tubes are lightly mixed then placed in a 37°C water bath for 30 minutes. The tubes are centrifuged at 11,000 rpm for 3 minutes and the plasma supernatant is transferred to clean tubes. A 50 µL portion of this plasma is added to a I mL microtiter tube containing 200 µL of methanol. The tubes are placed in the freezer at -20°C for at least 1 hour then centrifuged at 2000 rpm for 10 minutes. A 10 µL portion of the methanol supematant is dried under vacuum at ambient temperature and then reconstituted in LTB4 buffer. The amount of LTB4 in the sample is determined by radioimmunoassay performed according to the manufacturer's (Advanced Magnetics; Cambridge, MA) instructions. Percent inhibition values are obtained by comparing the level of LTB4 in the post-dose sample to the level in the pre-dose sample according to the equation below. % Inhibition =((LTB4 predose) - (LTB4 postdose))/((LTB4 predose))X 100 [formula]
A number of the compounds that are useful in the practice of the method of the invention were tested. The results are shown in Table 15 below where each entry represents the results from one dog. A negative number indicates stimulation of LTB4 production. All compounds were tested at a dose of 5 mg/Kg.

[3] = system: production of Leukotriene C4 in mouse peritoneal macrophages; assay: In vitro mouse peritoneal macrophage Leukotriene C4 inhibition (zymosan-stimulated, LTC4 radioimmunoassay); assay type: cell-based; settings: Zymosan 50 µg/mL
Experimental: The test method described below measures the ability of compounds to inhibit the production of Leukotriene C4 in mouse peritoneal macrophages.
Mice (female, CD-1, weighing 25 g) are euthanized by exposure to carbon dioxide. The peritoneal cavity is exposed by peeling back the abdominal skin. A 5 mL portion of media (M199 containing 1% fetal bovine serum, 100 units/mL of penicillin, 100 µg/mL of streptomycin, 20 units/mL of heparin and no glutamine) is injected into the exposed peritoneal cavity of each mouse. The lavage fluid is removed and pooled to yield approximately1 X 10^6 macrophages/mL. A 2 mL portion of lavage fluid is added to each well of a 24 well sterile multidish and the macrophages are allowed to adhere to the plate for 2 hours at 37°C in a 5% carbon dioxide atmosphere. The media is removed and each well is washed with 2 mL of phosphate buffered saline (PBS). A 1 mL portion of media, without heparin, but containing 5 µCi/mL of 3H-myoinositol is added to each well and the plates are incubated overnight at 37°C in a 5% carbon dioxide atmosphere. The media is removed and the cells are washed twice with 2 mL portions of PBS. A 1 mL portion of Puck's saline formulation A containing 1 mM calcium chloride, 1 mM magnesium chloride and 10 mM lithium chloride is added to each well. (The Puck's formulation is made first as a 10X solution which contains 4 g of potassium chloride, 80 g of sodium chloride and 10 g of glucose per liter. The Puck's saline formulation A is made using 10 mL of the 10X Puck's formulation, 0.47 mL of 7.5% sodium bicarbonate and 2 mL of 1M N-2-hydroxyethylpiperazine-N'-2-ethanesulfonic acid per 100 mL.)
Compounds are dissolved in dimethyl sulfoxide. Compounds are tested at concentrations of 10, 1 and 0.1 µM. Each concentration is tested in duplicate.
A 1 µL portion of compound solution or vehicle (DMSO) is added to each well and the plates are incubated for 15 minutes at 37°C in a 5% carbon dioxide atmosphere. Zymosan is then added to provide a final concentration of 50 µg/mL in each well and the plate is incubated for 1 to 2 hours at 37°C in a 5% carbon dioxide atmosphere.
Following incubation 200 µL portions of media are transferred to 12 X 75 mm tubes. The tubes are either assayed immediately or stored at -20°C until they can be assayed.
The media is assayed for the presence of Leukotriene C4 by radioimmunoassay which is performed according to the manufacturer's (Advanced Magnetics; Cambridge, MA) instructions.

[4] = 1 h, 1 hour post dose, read-out: % Inhibition 1 hour
[5] = 2 h, 2 hour post dose, read-out: % Inhibition 2 hour

Row | SMILES | IC50 (5-lipoxygenase) | IC50 [3] | % Inhibition 4 hour ([2]; 5 mg/Kg, 4 hour post dose) | % Inhibition 6 hour ([2]; 5 mg/Kg) | inhibition at 5 mg/kg [2, 4] | % Inhibition 2 hour ([2]; 5 mg/Kg, 2 hour post dose) | also measured
1 | CCCN(O)C(=O)Nc1ccccc1 [Compound 55, 1-hydroxy-3-phenyl-1-propylurea] | 0.052 µM | – | – | – | – | – | %I ([1]; 50 mg/Kg): 8%
2 | CN(O)C(=O)Nc1cccc(SC(F)(F)F)c1 [Compound 4, 1-hydroxy-1-methyl-3-[3-(trifluoromethylthio)phenyl]urea] | 0.027 µM | – | – | – | – | – | –
3 | CSc1ccc(NC(=O)N(O)C2CCCCC2)cc1 [Compound 31, 1-Cyclohexyl-1-hydroxy-3-[4-(methylthio)phenyl]urea] | 0.006 µM | 0.2 µM | – | – | – | – | %I ([1]; 25 mg/Kg): 40%
4 | COc1cccc(NC(=O)NO)c1 [Compound 33, 1-hydroxy-3-(3-methoxyphenyl)urea] | 9.1 µM | – | – | – | – | – | %I ([1]; 25 mg/Kg): 26%
5 | COc1cccc(NC(=O)N(O)C(C)C)c1 [Compound 22, 1-hydroxy-3-(3-methoxyphenyl)-1-(1-methylethyl)urea] | 0.74 µM | 0.3 µM | – | – | 100% | 78% and -140% | –
6 | CSc1cccc(NC(=O)N(C)O)c1 [Compound 3, 1-hydroxy-1-methyl-3-[3-(methylthio)phenyl]urea] | 0.082 µM | – | 95% | 51% and 84% | 100% | 99% | %I ([1]; 5 mg/Kg): 39%; inhibition at 5 mg/kg [2, 5]: 100%; inhibition at 5 mg/kg ([2]; 4 h, 4 hour post dose, read-out: % Inhibition 4 hour): 83%

Now from value to molecule, other results behind:

Row | IC50 (5-lipoxygenase) | IC50 [3] | SMILES | % Inhibition 4 hour ([2]; 5 mg/Kg, 4 hour post dose) | % Inhibition 6 hour ([2]; 5 mg/Kg) | inhibition at 5 mg/kg [2, 4] | % Inhibition 2 hour ([2]; 5 mg/Kg, 2 hour post dose) | also measured
7 | 0.049 µM | – | CN(O)C(=O)Nc1ccc(F)cc1 [Compound 11, 3-(4-fluorophenyl)-1-hydroxy-1-methylurea] | 77% and 41% | -17% and 30% | 100% | – | %I ([1]; 20 mg/Kg): 26%; %I ([1]; 50 mg/Kg): 20%; inhibition at 5 mg/kg [2, 5]: 100%
8 | 0.04 µM | – | CN(O)C(=O)Nc1cccc(OS(=O)(=O)C(F)(F)F)c1 [Compound 2, 1-hydroxy-1-methyl-3-[3-(trifluoromethylsulfonoxy)phenyl]urea] | – | – | – | – | –
9 | 0.002 µM | 0.1 µM | CSc1cccc(NC(=O)N(O)CC(C)C)c1 [Compound 58, 1-Hydroxy-1-(2-methylpropyl)-3-[3-(methylthio)phenyl]urea] | -43% and -63% | 8% and -34% | – | -21% and -35% | % Inhibition 1 hour ([2]; 5 mg/Kg, 1 hour post dose): 1% and -24%
10 | > 10 µM | > 1 µM | Cc1cccc(C)c1NC(=O)N(O)C(C)C [Compound 26, 3-(2,6-dimethylphenyl)-1-hydroxy-1-(1-methylethyl)urea] | – | – | – | – | –
